# Measurements published in patent US7972831B2, “Lipases from thermophilic anaerobes” (Novozymes A/S, priority 2004, dated 2011).
# Structures can show the parent of a compound that is named as a salt.
# Key:
# lipase of SEQ ID NO: 2 [1] = assay: Effect of solvents on lipase activity; format: biochemical, Thermoanaerobacter thermohydrosulfuricus; conditions: solvent up to 50% by volume
# lipase of SEQ ID NO: 2 [2] = assay: Substrate specificity with triacylglycerols; format: biochemical, Thermoanaerobacter thermohydrosulfuricus; conditions: triacylglycerol 10 mM, pH 8.0, 25 h at 70° C.
# Description: The lipase of SEQ ID NO: 2 was tested by reaction with various triacylglycerols 10 mM (pH 8.0) as substrates: for 25 h at 70° C. Similar results were obtained with the lipase of SEQ ID NO: 4.
# [3] = test system: lipase from T. thermohydrosulfuricum (SEQ ID NO: 2); assay: Alcoholysis of triacylglycerols (positional specificity towards triglycerides); format: biochemical, Thermoanaerobacter thermohydrosulfuricus; conditions: alcoholysis with ethanol in acetone, 7 h at 65° C.
# Description: Alcoholysis of various triacylglycerols catalyzed by the lipase of SEQ ID NO: 2 were tested. All substrates were alcoholyzed by the lipase. […] For other substrates the conversions were above 40%. The lipase catalysed the synthesis of 1,3-diacylglycerides and 1- and 3-monoacylglycerides from triacylglycerides at highest rate. No sn2-monoglyceride was produced. […] With the length of the ester bonds the 2-positional specificity of the protein increased.
# The positional specificity of the lipase from T. thermohydrosulfuricum (SEQ ID NO: 2) was tested towards the following triglycerides (TG, triacylglycerols): trilaurin (C12), trimyristin (C14), tripalmitin (C16), tristearin (C18), Triolein (C18:1). Each TG (3 mmol) was dissolved in organic solvent (2 ml acetone) and pre-equilibrated at 65° C. for 15 min, 400 rpm. Dry ethanol (3 mmol) was added and reaction mixture was incubated at 65° C. for 15 min, 400 rpm. Lipase (10% based on TG weight) was added to start reaction. Reaction was carried out in a 4-ml screw-capped vial and the reaction mixture was mixed with magnetic stirrer (400 rpm). Aliquot amount of reaction mixture (20 μl) was periodically withdrawn and diluted with chloroform (80 μl) to appropriate dilution, followed by analysis with latroscan to determine acylglycerol composition.
# Changes in glycerides composition of the reaction medium during reaction were quantitatively determined by TLC/FID using latroscan analytical methods (latroscan, latron Laboratories, Inc., Tokyo, Japan). Before analysis, a blank of the chromarod was scanned. After treating chromarod with boric acid (3%) and drying for 5 min, 0.1 μl of the reaction medium (diluted in chloroform at appropriate dilution) is spotted onto the chromarod and the spotted sample was developed for 10 cm in a mixture of benzene:chloroform:acetic acid (50:30:0.5, by vol) for 35 min. After drying, the chromarod in an oven at 110° C. for 5 min, scanning is performed at a hydrogen flow rate of 160 ml/min and an air flow rate of 2.01/min to produce a chromatogram.
# The results of the alcoholysis of the triacylglycerols catalysed by the lipase from […] after 7 h reactions time at 65° C. are given below as % of remaining substrate (TG) and % of the following products: fatty acid (FA), diglycerides (DG, with 1,3-DG separated from 1,2- and 2,3-DG), monoglyceride (MG, with 2-MG separated from 1- and 3-MG).
# lipase of SEQ ID NO: 2 [4] = assay: Effect of inhibitors on lipase activity; format: biochemical, Thermoanaerobacter thermohydrosulfuricus; conditions: for effect on the activity of the lipase: up to 10 mM
# lipase of SEQ ID NO: 4 = assay: Effect of inhibitors on lipase activity; format: biochemical, Caldanaerobacter subterraneus subsp. tengcongensis; conditions: for effect on the activity of the lipase: up to 10 mM
# lipase = assay: Effects of metal ions on lipase activity; format: biochemical; conditions: metal ions up to 10 mM
# Source text: The activity was decreased by the following ions: Zn2+, Fe2+, Fe3+ and Cr3+.
# lipase of SEQ ID NO: 2 [5] = assay: Enantioselectivity of ester hydrolysis; format: biochemical, Thermoanaerobacter thermohydrosulfuricus
# Description: The (S)-alcohols were formed. The lipase was more enantioselective towards butynol butyrate than towards butynol acetate. Over time the conversion increased for all four substrates and reached above 20-30% after 24 h of reactions time. Over time in the contrast to the conversion the enantioselectivity of the enzyme towards both substrates decreased for butynol butyrate from 16.7 to 8.06 and for butynol acetate from 9.15 to 2.65 after 40 h of reactions time. […] For two other substrates the enantioselectivity of the lipase (E≧1) was constant over time.
# lipase of SEQ ID NO: 2 [6] = assay: Substrate specificity for pNP-esters; format: biochemical, Thermoanaerobacter thermohydrosulfuricus; conditions: pNP-ester 1 mM, pH 8.0, 10 min at 70° C.
compound,measurement,setting,value
C[S+](C)[O-] [DMSO],effect on the activity of the lipase,lipase of SEQ ID NO: 2 [1],little effect
"CCCCCCCCCCCCCCCC(=O)OCC(COC(=O)CCCCCCCCCCCCCCC)OC(=O)CCCCCCCCCCCCCCC [Tripalmitin, Tripalmitin (C16:0)]",Relative activity,lipase of SEQ ID NO: 2 [2],22
same,"DG 1,2- 2,3-",[3],1%
same,"DG 1,3-",[3],13%
same,FA (fatty acid),[3],3%
same,MG 1- 3-,[3],18%
same,TG (remaining substrate),[3],65%
N=C(N)N [guanidine hydrochloride],effect on the activity of the lipase,lipase of SEQ ID NO: 2 [4],little effect
same,effect on the activity of the lipase,lipase of SEQ ID NO: 4,little effect
"CCCCCCCCCCCCCC(=O)OCC(COC(=O)CCCCCCCCCCCCC)OC(=O)CCCCCCCCCCCCC [Trimyristin, Trimyristin (C14:0)]",Relative activity,lipase of SEQ ID NO: 2 [2],8
same,"DG 1,2- 2,3-",[3],2%
same,"DG 1,3-",[3],12%
same,FA (fatty acid),[3],1%
same,MG 1- 3-,[3],19%
same,TG (remaining substrate),[3],66%
[K+] [K+],lipase activity in the presence of metal ions,lipase,nearly unchanged
CO [methanol],effect on the activity of the lipase,lipase of SEQ ID NO: 2 [1],little effect
butynol butyrate,enantiopreference,lipase of SEQ ID NO: 2 [5],(S)-preference
same,lipase activity towards substrate,lipase of SEQ ID NO: 2 [5],active
same,E-value (enantioselectivity),lipase of SEQ ID NO: 2 [5]; after 40 h of reactions time,8.06
same,E-value (enantioselectivity),lipase of SEQ ID NO: 2 [5]; initial value,16.7
[Rb+] [Rb+],lipase activity in the presence of metal ions,lipase,nearly unchanged
"CCCCCC(=O)OCC(COC(=O)CCCCC)OC(=O)CCCCC [Tricaproin, Tricaproin (C6:0)]",Relative activity,lipase of SEQ ID NO: 2 [2],74
CC(=O)OC(C)c1ccccc1 (stereo not drawn) [1-phenyl-1-ethyl-acetate],lipase activity towards substrate,lipase of SEQ ID NO: 2 [5],active
CC(=O)OC(C)Cc1ccccc1 (stereo not drawn) [1-phenyl-2-propyl-acetate],lipase activity towards substrate,lipase of SEQ ID NO: 2 [5],active
CC(C)O [isopropanol],effect on the activity of the lipase,lipase of SEQ ID NO: 2 [1],little effect
CC#N [acetonitrile],effect on the activity of the lipase,lipase of SEQ ID NO: 2 [1],little effect
[Ag+] [Ag+],lipase activity in the presence of metal ions,lipase,nearly unchanged
O=C(O)CI [iodo-acetate],effect on the activity of the lipase,lipase of SEQ ID NO: 2 [4],little effect
same,effect on the activity of the lipase,lipase of SEQ ID NO: 4,little effect
"CC(=O)Oc1ccc([N+](=O)[O-])cc1 [pNP-acetate, pNP-acetate (C2:0)]",Relative activity,lipase of SEQ ID NO: 2 [6],9
CC(C)=O [acetone],effect on the activity of the lipase,lipase of SEQ ID NO: 2 [1],little effect
[Ca+2] [Ca2+],lipase activity in the presence of metal ions,lipase,nearly unchanged
"CCCCCCCCCC(=O)OCC(COC(=O)CCCCCCCCC)OC(=O)CCCCCCCCC [Tricaprin, Tricaprin (C10:0)]",Relative activity,lipase of SEQ ID NO: 2 [2],15
O=S(=O)(F)Cc1ccccc1 [PMSF],inactivation of the lipase,lipase of SEQ ID NO: 2 [4]; 0.1-1 mM,inactivated
same,inactivation of the lipase,lipase of SEQ ID NO: 4; 0.1-1 mM,inactivated
[Fe+2] [Fe2+],lipase activity in the presence of metal ions,lipase,decreased
"CCCCCCCCCCCCCCCCCC(=O)Oc1ccc([N+](=O)[O-])cc1 [pNP-stearate, pNP-stearate (C18:0)]",Relative activity,lipase of SEQ ID NO: 2 [6],8
c1ccncc1 [pyridine],effect on the activity of the lipase,lipase of SEQ ID NO: 2 [1],little effect
"CCCCCCCCCCCCCCCC(=O)Oc1ccc([N+](=O)[O-])cc1 [pNP-palmitate, pNP-palmitate (C16:0)]",Relative activity,lipase of SEQ ID NO: 2 [6],32
"CCCCCCCC(=O)OCC(COC(=O)CCCCCCC)OC(=O)CCCCCCC [Tricaprylin, Tricaprylin (C8:0)]",Relative activity,lipase of SEQ ID NO: 2 [2],100
[Mn+2] [Mn2+],lipase activity in the presence of metal ions,lipase,nearly unchanged
[Fe+3] [Fe3+],lipase activity in the presence of metal ions,lipase,decreased
"CCCCCCCCCCCCCC(=O)Oc1ccc([N+](=O)[O-])cc1 [pNP-myristate, pNP-myristate (C14:0)]",Relative activity,lipase of SEQ ID NO: 2 [6],68
CN(C)C=O [dimethylformamide],effect on the activity of the lipase,lipase of SEQ ID NO: 2 [1],little effect
